Assay results taken from article PMC5814754, “Quantitative, Wide-Spectrum Kinase Profiling in Live Cells for Assessing the Effect of Cellular ATP on Target Engagement” (Cell Chemical Biology, 2018).
Like-named read-outs stand apart in the source and are kept apart here.

Key:
Test in all cases: NanoBRET single-dose fractional occupancy profiling of kinase/Nluc library in live HEK293 cells (Table S1)
Type in all cases: binding
Parameters in all cases: receptor occupancy: dose or concentration left out as unconfirmed; Occupancy, % Replicate 1 / Occupancy, % Replicate 2: unit of the concentration uncertain
[1] = target: 178 full-length kinases (Homo sapiens, UniProt O75676); conditions: RPS6KA4 (NP_001287731), Nluc orientation N, probe 5 at 0.1 (unit uncertain); replicate 1
[2] = target: 178 full-length kinases (Homo sapiens, UniProt P19784); conditions: CSNK2A2, Nluc C, probe 5 at 1 (unit uncertain)
[3] = target: 178 full-length kinases (Homo sapiens, UniProt P27037); conditions: ACVR2A, Nluc C, probe 2 at 1 (unit uncertain)
178 full-length kinases (Homo sapiens, UniProt P27037), sequence (P27037 20-513): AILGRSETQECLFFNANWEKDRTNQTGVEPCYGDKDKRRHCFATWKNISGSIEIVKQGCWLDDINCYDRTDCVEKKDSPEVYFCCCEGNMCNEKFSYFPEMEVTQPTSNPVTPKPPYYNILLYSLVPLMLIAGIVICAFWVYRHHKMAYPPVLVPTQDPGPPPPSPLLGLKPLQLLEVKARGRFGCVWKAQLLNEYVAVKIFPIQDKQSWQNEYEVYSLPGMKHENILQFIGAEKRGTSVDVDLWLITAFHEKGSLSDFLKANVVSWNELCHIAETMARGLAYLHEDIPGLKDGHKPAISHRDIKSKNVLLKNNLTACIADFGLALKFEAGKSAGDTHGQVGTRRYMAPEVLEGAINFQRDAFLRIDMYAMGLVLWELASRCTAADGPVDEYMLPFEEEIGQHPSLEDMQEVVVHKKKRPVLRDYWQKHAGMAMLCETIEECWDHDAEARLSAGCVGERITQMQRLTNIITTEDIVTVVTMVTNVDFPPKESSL

[4] = target: 178 full-length kinases (Homo sapiens, UniProt P31749); conditions: AKT1, Nluc C, probe 5 at 1 (unit uncertain)
178 full-length kinases (Homo sapiens, UniProt P31749), sequence (P31749 whole entry): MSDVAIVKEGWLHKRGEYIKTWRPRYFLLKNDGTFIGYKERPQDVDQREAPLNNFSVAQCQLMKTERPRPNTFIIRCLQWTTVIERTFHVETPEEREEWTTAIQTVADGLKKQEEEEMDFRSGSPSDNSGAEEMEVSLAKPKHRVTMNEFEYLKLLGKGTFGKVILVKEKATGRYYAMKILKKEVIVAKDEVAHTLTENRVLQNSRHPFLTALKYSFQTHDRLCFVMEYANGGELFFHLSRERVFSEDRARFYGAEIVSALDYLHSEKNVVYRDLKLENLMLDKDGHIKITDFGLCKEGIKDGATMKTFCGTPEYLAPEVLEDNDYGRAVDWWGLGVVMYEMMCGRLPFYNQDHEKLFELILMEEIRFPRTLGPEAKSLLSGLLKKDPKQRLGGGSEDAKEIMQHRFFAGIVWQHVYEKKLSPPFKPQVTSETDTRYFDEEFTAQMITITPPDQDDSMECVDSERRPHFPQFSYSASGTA

[5] = target: 178 full-length kinases (Homo sapiens, UniProt P31751); conditions: AKT2, Nluc C, probe 5 at 1 (unit uncertain)
[6] = target: 178 full-length kinases (Homo sapiens, UniProt P36896); conditions: ACVR1B, Nluc C, probe 5 at 1 (unit uncertain)
[7] = target: 178 full-length kinases (Homo sapiens, UniProt P42681); conditions: TXK (NP_003319), Nluc orientation C, probe 6 at 0.1 (unit uncertain)
[8] = target: 178 full-length kinases (Homo sapiens, UniProt Q00535); conditions: CDK5, Nluc C, probe 5 at 1 (unit uncertain)
[9] = target: 178 full-length kinases (Homo sapiens, UniProt Q02156); conditions: PRKCE, Nluc C, probe 5 at 1 (unit uncertain)
178 full-length kinases (Homo sapiens, UniProt Q02156), sequence (Q02156 whole entry): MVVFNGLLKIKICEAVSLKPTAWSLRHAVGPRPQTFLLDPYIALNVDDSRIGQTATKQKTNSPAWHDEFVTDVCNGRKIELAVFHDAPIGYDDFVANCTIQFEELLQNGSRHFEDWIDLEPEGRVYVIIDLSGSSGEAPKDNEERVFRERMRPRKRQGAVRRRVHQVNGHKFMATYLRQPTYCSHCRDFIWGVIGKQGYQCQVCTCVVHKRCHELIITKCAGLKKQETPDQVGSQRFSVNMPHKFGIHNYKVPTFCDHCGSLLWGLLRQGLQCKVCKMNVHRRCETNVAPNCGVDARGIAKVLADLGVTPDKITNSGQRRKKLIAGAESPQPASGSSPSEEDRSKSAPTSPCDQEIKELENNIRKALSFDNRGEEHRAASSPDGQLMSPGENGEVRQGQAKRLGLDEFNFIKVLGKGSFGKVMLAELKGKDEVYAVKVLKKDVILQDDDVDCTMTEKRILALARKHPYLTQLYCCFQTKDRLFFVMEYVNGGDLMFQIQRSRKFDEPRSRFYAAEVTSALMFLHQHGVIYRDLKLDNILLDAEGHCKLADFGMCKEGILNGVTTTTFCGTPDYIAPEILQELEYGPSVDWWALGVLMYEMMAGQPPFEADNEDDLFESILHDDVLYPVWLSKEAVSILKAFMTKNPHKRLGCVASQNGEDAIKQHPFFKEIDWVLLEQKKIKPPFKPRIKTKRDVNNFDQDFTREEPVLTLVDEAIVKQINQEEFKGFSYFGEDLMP

[10] = target: 178 full-length kinases (Homo sapiens, UniProt Q02779); conditions: MAP3K10, Nluc N, probe 5 at 1 (unit uncertain)
[11] = target: 178 full-length kinases (Homo sapiens, UniProt Q13882); conditions: PTK6, Nluc C, probe 6 at 0.5 (unit uncertain)
[12] = target: 178 full-length kinases (Homo sapiens, UniProt Q15349); conditions: RPS6KA2 (NP_001305865), Nluc orientation N, probe 5 at 0.5 (unit uncertain)
[13] = target: 178 full-length kinases (Homo sapiens, UniProt Q16832); conditions: DDR2, Nluc C, probe 6 at 0.1 (unit uncertain)
[14] = target: 178 full-length kinases (Homo sapiens, UniProt Q5S007); conditions: LRRK2, Nluc C
178 full-length kinases (Homo sapiens, UniProt Q5S007), sequence (Q5S007 whole entry): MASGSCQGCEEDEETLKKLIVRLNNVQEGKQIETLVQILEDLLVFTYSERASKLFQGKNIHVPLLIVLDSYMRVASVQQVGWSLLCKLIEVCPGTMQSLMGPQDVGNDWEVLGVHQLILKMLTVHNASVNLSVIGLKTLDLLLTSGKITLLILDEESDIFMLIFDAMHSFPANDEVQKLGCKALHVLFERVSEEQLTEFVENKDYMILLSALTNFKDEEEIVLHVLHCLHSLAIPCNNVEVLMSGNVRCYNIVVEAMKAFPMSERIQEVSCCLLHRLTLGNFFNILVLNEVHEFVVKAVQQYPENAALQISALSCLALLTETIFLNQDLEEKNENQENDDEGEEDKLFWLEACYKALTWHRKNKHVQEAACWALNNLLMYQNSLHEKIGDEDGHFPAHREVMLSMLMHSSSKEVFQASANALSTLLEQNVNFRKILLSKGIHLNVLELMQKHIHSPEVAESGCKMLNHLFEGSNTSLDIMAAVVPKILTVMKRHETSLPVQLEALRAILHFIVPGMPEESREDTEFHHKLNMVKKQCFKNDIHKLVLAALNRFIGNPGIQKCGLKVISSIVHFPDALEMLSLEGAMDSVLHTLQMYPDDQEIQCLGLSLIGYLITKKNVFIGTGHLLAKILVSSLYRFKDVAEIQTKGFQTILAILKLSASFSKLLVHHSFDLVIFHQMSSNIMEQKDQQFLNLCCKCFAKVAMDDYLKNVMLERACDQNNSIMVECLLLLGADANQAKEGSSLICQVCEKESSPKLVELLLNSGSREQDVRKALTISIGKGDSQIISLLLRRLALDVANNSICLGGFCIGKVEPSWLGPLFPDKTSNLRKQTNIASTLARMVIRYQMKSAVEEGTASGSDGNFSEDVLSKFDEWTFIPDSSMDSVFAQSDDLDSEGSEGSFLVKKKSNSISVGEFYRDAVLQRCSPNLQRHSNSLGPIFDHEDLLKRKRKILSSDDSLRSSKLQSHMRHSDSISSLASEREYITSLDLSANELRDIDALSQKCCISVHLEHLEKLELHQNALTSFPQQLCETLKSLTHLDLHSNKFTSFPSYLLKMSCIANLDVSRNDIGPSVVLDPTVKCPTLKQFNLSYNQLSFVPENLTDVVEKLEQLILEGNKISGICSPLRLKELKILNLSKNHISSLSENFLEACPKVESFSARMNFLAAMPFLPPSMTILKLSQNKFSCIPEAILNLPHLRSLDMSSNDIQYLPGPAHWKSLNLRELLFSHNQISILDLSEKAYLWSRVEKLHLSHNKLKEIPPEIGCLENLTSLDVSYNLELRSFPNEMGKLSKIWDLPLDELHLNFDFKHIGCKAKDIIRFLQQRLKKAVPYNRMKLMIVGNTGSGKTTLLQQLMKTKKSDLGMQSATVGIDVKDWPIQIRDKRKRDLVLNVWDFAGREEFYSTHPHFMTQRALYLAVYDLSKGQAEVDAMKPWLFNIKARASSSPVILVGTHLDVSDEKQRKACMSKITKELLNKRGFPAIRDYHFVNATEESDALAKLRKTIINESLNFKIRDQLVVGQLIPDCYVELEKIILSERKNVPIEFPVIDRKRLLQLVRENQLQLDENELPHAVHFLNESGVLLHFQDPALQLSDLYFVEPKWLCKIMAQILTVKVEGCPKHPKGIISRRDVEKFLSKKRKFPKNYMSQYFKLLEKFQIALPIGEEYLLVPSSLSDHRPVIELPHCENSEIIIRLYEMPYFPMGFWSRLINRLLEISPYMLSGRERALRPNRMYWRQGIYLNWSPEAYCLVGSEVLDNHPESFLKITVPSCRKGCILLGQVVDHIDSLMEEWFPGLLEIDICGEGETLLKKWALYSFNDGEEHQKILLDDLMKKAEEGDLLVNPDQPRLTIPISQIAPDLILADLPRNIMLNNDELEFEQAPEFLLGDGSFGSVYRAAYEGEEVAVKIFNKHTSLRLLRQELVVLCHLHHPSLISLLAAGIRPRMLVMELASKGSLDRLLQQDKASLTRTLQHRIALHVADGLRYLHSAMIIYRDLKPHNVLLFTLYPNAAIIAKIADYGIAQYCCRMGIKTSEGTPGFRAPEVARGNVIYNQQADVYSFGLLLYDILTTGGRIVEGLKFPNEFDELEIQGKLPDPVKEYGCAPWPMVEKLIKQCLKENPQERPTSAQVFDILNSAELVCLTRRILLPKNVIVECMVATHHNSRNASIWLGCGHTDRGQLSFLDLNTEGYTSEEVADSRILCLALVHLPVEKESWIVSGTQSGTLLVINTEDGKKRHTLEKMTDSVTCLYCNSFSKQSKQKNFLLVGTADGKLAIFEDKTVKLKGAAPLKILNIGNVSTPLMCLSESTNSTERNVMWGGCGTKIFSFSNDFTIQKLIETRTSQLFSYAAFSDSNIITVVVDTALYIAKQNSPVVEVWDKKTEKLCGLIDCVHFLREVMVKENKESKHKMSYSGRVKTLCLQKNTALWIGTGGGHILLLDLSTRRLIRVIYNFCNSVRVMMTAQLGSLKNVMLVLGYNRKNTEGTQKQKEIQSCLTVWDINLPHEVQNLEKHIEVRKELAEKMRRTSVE

[15] = target: 178 full-length kinases (Homo sapiens, UniProt Q7KZI7); conditions: MARK2, Nluc N, probe 5 at 1 (unit uncertain)
[16] = target: 178 full-length kinases (Homo sapiens, UniProt Q96L34); conditions: MARK4, Nluc N, probe 5 at 1 (unit uncertain)
178 full-length kinases (Homo sapiens, UniProt Q96L34), sequence (Q96L34 whole entry): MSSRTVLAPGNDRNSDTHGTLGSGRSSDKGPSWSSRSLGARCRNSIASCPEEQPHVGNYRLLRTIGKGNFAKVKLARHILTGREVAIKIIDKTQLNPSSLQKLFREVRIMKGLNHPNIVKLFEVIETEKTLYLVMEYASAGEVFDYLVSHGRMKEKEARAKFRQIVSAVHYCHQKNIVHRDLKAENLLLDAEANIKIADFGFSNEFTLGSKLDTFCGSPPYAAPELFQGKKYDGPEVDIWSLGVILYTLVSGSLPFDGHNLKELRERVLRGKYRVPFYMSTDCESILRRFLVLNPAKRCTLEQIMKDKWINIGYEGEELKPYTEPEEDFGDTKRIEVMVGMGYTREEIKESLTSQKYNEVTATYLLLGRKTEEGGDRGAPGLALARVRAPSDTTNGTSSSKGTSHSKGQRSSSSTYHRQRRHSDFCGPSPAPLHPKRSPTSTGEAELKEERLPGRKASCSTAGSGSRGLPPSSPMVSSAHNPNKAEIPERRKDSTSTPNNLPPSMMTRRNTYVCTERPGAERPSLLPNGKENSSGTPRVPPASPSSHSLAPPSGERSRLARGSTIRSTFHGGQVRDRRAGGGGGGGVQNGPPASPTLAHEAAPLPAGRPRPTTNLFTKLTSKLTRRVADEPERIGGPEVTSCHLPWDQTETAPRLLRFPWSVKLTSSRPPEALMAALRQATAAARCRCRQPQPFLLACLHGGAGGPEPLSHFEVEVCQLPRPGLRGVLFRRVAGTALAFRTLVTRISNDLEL

[17] = target: 178 full-length kinases (Homo sapiens, UniProt Q96PY6); conditions: NEK1, Nluc N, probe 5 at 1 (unit uncertain)
[18] = target: 178 full-length kinases (Homo sapiens, UniProt Q9H0K1); conditions: SNF1LK2 (NP_056006), Nluc orientation N, probe 6 at 0.1 (unit uncertain)

C[C@@H](Oc1cc(-c2cnn(C3CCNCC3)c2)cnc1N)c1c(Cl)ccc(F)c1Cl [Crizotinib]
14%: receptor occupancy ([14]; read-out: Occupancy, % Replicate 1)
No Binding: Occupancy, % Replicate 1 [1] | Occupancy, % Replicate 1 [2] | Occupancy, % Replicate 2 [2] | Occupancy, % Replicate 1 [3] | Occupancy, % Replicate 2 [3] | Occupancy, % Replicate 1 [4] | Occupancy, % Replicate 2 [4] | Occupancy, % Replicate 1 [5] | Occupancy, % Replicate 2 [5] | Occupancy, % Replicate 2 [6] | Occupancy, % Replicate 1 ([7]; replicate 1) | Occupancy, % Replicate 2 ([7]; replicate 2) | Occupancy, % Replicate 1 [8] | Occupancy, % Replicate 2 [8] | Occupancy, % Replicate 1 [9] | Occupancy, % Replicate 2 [9] | Occupancy, % Replicate 1 [10] | Occupancy, % Replicate 2 [10] | Occupancy, % Replicate 2 [11] | Occupancy, % Replicate 1 ([12]; replicate 1) | Occupancy, % Replicate 2 ([12]; replicate 2) | Occupancy, % Replicate 1 [13] | Occupancy, % Replicate 2 [15] | Occupancy, % Replicate 1 [16] | Occupancy, % Replicate 2 [16] | Occupancy, % Replicate 2 [17] | Occupancy, % Replicate 1 ([18]; replicate 1) | Occupancy, % Replicate 2 ([18]; replicate 2)
31%: receptor occupancy ([14]; read-out: Occupancy, % Replicate 2)
